Literature values, collected in patent US20090196889A1, “CONTROLLED ABSORPTION OF STATINS IN THE INTESTINE” (DEXCEL PHARMA TECHNOLOGIES LTD., priority 2004, published 2009).

How the values were obtained:
HMG-CoA reductase = molecular target: T1, HMG-CoA reductase (Homo sapiens, UniProt P04035); conditions: relative to the beta-hydroxy acid form considered as the drug
T1 sequence (P04035 1-888): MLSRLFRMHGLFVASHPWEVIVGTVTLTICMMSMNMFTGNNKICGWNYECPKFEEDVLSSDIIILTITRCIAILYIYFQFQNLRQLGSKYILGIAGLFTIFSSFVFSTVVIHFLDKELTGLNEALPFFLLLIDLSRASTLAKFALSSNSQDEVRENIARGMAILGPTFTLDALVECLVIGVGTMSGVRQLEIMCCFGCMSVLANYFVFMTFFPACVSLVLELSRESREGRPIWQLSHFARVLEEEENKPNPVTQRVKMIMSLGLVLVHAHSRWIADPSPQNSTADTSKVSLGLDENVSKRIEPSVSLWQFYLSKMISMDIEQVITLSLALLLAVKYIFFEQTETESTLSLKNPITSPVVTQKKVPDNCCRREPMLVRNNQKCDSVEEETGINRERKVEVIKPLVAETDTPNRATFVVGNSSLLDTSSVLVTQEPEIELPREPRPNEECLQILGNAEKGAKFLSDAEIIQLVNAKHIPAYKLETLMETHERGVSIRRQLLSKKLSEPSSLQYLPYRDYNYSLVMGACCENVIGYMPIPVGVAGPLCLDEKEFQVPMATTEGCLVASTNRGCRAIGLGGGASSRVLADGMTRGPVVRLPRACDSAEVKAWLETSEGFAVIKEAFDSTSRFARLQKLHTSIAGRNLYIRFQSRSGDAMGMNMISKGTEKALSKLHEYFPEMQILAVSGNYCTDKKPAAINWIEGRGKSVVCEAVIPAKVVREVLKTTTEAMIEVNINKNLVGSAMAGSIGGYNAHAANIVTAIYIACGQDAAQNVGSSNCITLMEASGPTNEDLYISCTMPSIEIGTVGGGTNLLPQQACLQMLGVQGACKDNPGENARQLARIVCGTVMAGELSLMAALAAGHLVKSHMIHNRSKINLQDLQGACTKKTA

[1] = system: plasma proteins, primarily albumin; conditions: simvastatin and its active acid forms

| SMILES | HMG-CoA reductase activity retained (HMG-CoA reductase) | bound to plasma proteins, primarily to albumin [1] |
| --- | --- | --- |
| CCC(C)(C)C(=O)OC1CC(C)(O)C=C2C=CC(C)C(CCC3CC(O)CC(=O)O3)C21 (stereo not drawn) [6-beta-hydroxy simvastatin] | ~50% |  |
| CCC(C)(C)C(=O)OC1CC(CO)C=C2C=CC(C)C(CCC3CC(O)CC(=O)O3)C21 (stereo not drawn) [6-beta-hydroxymethyl] | approximately 40% |  |
| CCC(C)(C)C(=O)O[C@H]1C[C@@H](C)C=C2C=C[C@H](C)[C@H](CC[C@@H]3C[C@@H](O)CC(=O)O3)[C@H]21 [simvastatin] |  | more than 95% |
